Measurements as given in paper PMC4077824, “Conserved Prosegment Residues Stabilize a Late-Stage Folding Transition State of Pepsin Independently of Ground States” (PLoS ONE, 2014).
“Also recorded” adds a separate entry of the source. Where no end group is shown, it is not given here.

Columns and labels:
refolded pepsin (Rp) [1] = target: T1, refolded pepsin (Rp) (Sus scrofa, UniProt P00791); experiment: PS binding to Rp (Trp-fluorescence); parameters: species or system porcine; details: for Kd: 0.6-1.2 µM Rp, 20 mM acetic acid/NaOH pH 5.3 without added NaCl, ≥10 min, Trp-fluorescence ex 295 nm, em 315 nm, mean ± SD from non-linear curve fitting, 3-5 measurements, read-out: K d (PS-Rp dissociation constant); for Kd / ΔΔGPS-Rp (change in PS-Rp binding energy upon mutation): 20°C; for ΔΔGPS-Rp (change in PS-Rp binding energy upon mutation): from K d, pH 5.3, relative to WT, ± SD by propagation of errors; for effect on affinity for Rp / PS-Rp stability (in words): pH 5.3, 20°C, compared with PSwt
T1 construct: Only the R13 and K36 side-chains of the PS form hydrogen bonds with the mature pepsin domain; purchased Sigma (St. Louis, MO, USA)
Protocol: The change in intrinsic tryptophan fluorescence of pepsin was used to measure the binding of PS to Rp and to determine the dissociation constant, K d. Rp solutions were diluted to between 0.6 and 1.2 µM in 20 mM acetic acid/NaOH buffer, pH 5.3, and mixed with various amounts of PS. After incubating the samples at 20°C for ≥10 minutes, the intrinsic tryptophan fluorescence was measured using a PTI spectrofluorophotometer (Photon Technology International, Inc., Birmingham NJ, USA), with excitation at 295 nm and emission measured at 315 nm. The change in fluorescence, ΔF i, at each PS concentration, [PS], was normalized relative to the maximum change, ΔF max, and fit according to [drawing 1] (1) where [Rp] is the total concentration of pepsin.
PS binding to Rp was measured in buffer without added 100 mM NaCl in order to obtain more accurate measurements of K d, owing to a larger change in signal in the absence of salt. Additionally, without added 100 mM NaCl it was possible to isolate the PS-Rp binding step from the catalyzed folding step thereby improving the determination of K d.
(§1) The change in stability of the folding transition state upon mutation was calculated using [drawing 3] (3) where k f, wt and k f, mut are the PS-catalyzed folding rate constants of the wild-type and mutant PS peptides. The change in equilibrium stability of PS-Np relative to PS-Rp upon mutation of the PS (ΔΔGPS(Np-Rp)) was determined as the difference between the changes in binding energies, using [drawing 4] (4) and [drawing 5] (5)
(§2) Here, ΔΔGbind refers to either ΔΔGPS-Rp, determined from K d values, or ΔΔGPS-Np, determined from K i values. The Φ-value for each mutant corresponds to eq 3 divided by eq 5. Additional details are included in the supporting information section (Text S1).

native pepsin (Np) = target: T2, native pepsin (Np) (Sus scrofa, UniProt P00791); experiment: PS binding to Np (competitive inhibition of KPAEFF(NO2)AL hydrolysis); format: biochemical, porcine; details: for Ki: 10 nM Np, 20 mM acetic acid/NaOH pH 5.3, 100 mM NaCl, 5 min incubation, substrate KPAEFF(NO2)AL 0.1 mM, absorbance 300 nm, competitive model, mean ± SD from non-linear curve fitting, 3-5 measurements, read-out: K i (PS-Np inhibition constant); for Ki / ΔΔGPS-Np (change in PS-Np binding energy upon mutation): 20°C; for ΔΔGPS-Np (change in PS-Np binding energy upon mutation): from K i, pH 5.3, relative to WT, ± SD by propagation of errors; for effect on affinity for Np / PS-Np stability (in words): pH 5.3, 20°C, PS inhibition of Np, compared with PSwt
T2 construct: Only the R13 and K36 side-chains of the PS form hydrogen bonds with the mature pepsin domain; purchased Sigma (St. Louis, MO, USA)
Protocol: PS binding to Np was determined by using the PS as a competitive inhibitor and measuring the inhibition constant, K i. Hydrolysis of the KPAEFF(NO2)AL substrate was measured by following the decrease in absorbance at 300 nm using a Biochrom Ultrospec 3100pro UV-Vis spectrophotometer (Biochrom Ltd., Cambridge, England) in 20 mM acetic acid/NaOH buffer, pH 5.3, containing 100 mM NaCl. Np samples were diluted to 10 nM and incubated with PS for 5 min at 20°C and assayed for activity. The reaction rates were normalized to the activity in the absence of PS and the data fit using the competitive inhibitor form of the Michaelis-Menten equation [drawing 2] (2) where v0 is the initial reaction rate, V max is the maximum reaction rate, [S] is the substrate concentration (fixed at 0.1 mM), [I] is the inhibitor concentration, and K M is the Michaelis constant.
as §1, §2

refolded pepsin (Rp) [2] = target: T1, refolded pepsin (Rp); experiment: PS-catalyzed folding of Rp to Np (recovery of Np activity); format: biochemical, porcine; details: for k f (PS-catalyzed folding rate constant): 1 µM Rp, 30 µM PS, pH 5.3 (20 mM acetic acid/NaOH, 100 mM NaCl), Np activity assayed at pH 1.2, 25°C with KPAEFF(NO2)AL, monoexponential fit, mean ± SD from non-linear curve fitting, 3-5 measurements; for k f (PS-catalyzed folding rate constant) / ΔΔG^‡ (change in folding activation energy upon mutation): 15°C; for ΔΔG^‡ (change in folding activation energy upon mutation): from k f, pH 5.3, relative to WT, ± SD by propagation of errors
Protocol: PS-catalyzed folding of Rp to Np
PS-catalyzed folding was carried out by combining 1 µM Rp and 30 µM PS, in a volume of 100 µl, at pH 5.3 (20 mM acetic acid/NaOH with 100 mM NaCl) and 15°C. Aliquots were taken at several time intervals, diluted 20-fold in 50 mM phosphoric acid buffer, pH 1.2, incubated for 5 min at 25°C and assayed for Np activity using the KPAEFF(NO2)AL substrate. The recovery of Np activity with time, t, was fit with a monoexponential function (y = a – bexp(–k f t)) to obtain the PS-catalyzed folding rate constant, k f. Under these conditions, PS binding to Rp reached equilibrium within the dead-time of mixing (<8 sec), as judged by Trp-fluorescence.
as §1
Temperature dependence of PS-catalyzed folding
PS-catalyzed folding could be measured only up to 15 °C for PSwt, as the reaction was too fast at higher temperatures. […] Given the linear temperature dependence it could be reasonably assumed that changes in activation energies (mutant – wild-type) would be unchanged from 15 °C to 20 °C, and so could be compared directly with changes in binding energies (wild-type – mutant) that were determined at 20 °C.

T1 sequence (P00791 60-385): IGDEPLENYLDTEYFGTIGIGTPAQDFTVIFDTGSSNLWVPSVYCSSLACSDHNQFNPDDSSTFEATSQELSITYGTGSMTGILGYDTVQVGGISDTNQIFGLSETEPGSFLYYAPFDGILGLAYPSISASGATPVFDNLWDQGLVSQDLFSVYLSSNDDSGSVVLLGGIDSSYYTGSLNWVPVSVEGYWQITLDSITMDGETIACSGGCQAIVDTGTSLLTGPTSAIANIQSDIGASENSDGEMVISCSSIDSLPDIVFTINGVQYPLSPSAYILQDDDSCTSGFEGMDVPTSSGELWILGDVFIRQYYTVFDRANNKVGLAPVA
T2 sequence (P00791 60-385): as above

Sequence | Kd (refolded pepsin (Rp) [1]) [nM] | ΔΔGPS-Rp (change in PS-Rp binding energy upon mutation) (refolded pepsin (Rp) [1]) [kcal/mol] | effect on affinity for Rp / PS-Rp stability (in words) (refolded pepsin (Rp) [1]) | Ki (native pepsin (Np)) [nM] | ΔΔGPS-Np (change in PS-Np binding energy upon mutation) (native pepsin (Np)) [kcal/mol] | effect on affinity for Np / PS-Np stability (in words) (native pepsin (Np)) | k f (PS-catalyzed folding rate constant) (refolded pepsin (Rp) [2]) [min⁻¹] | ΔΔG^‡ (change in folding activation energy upon mutation) (refolded pepsin (Rp) [2]) [kcal/mol] | effect on rate of PS-catalyzed folding (in words) (refolded pepsin (Rp) [2]; pH 5.3, 15°C, compared with PSwt)
LVKAPLVRKKSLRQNLIKNGKLKDFLKTHKHNPASKYFPEAAAL [V4A] | 1190 ± 230 | 0.79 ± 0.12 | relatively large destabilizing effect on PS-Rp | 50.9 ± 6.9 | -0.14 ± 0.13 | very small stabilizing effect on PS-Np; also recorded: stabilizing to the native state | 0.27 ± 0.03 | 0.94 ± 0.15 | 
LVKVPLVRKKSLRQNLAKNGKLKDFLKTHKHNPASKYFPEAAAL [I17A] | 210 ± 90 | -0.21 ± 0.24 | negligible effect on PS-Rp binding; also recorded: negligible effect on PS-Rp and PS-TS stability | 394 ± 65.1 | 1.05 ± 0.14 | largest reduction in affinities for Np; also recorded: one of the most destabilizing mutations to the PS-Np complex | 1.40 ± 0.26 | 0.01 ± 0.18 | no effect
LVKVPLVRKKSLRQNLIKNGKLKDFLKTHKHNPASKYFPEAAAL [WT] | 310 ± 30 |  |  | 64.8 ± 11.4 |  |  | 1.42 ± 0.34 |  | 
